In general, IC50 refers to the point on the concentration scale where inhibition reaches its midpoint.

Structures can show the parent of a compound that is named as a salt.

The target in the first experiment is T1, human calcium receptor (Homo sapiens, UniProt P41180).
T1 construct: expressed in transfected cells
T1 sequence (P41180 20-1078): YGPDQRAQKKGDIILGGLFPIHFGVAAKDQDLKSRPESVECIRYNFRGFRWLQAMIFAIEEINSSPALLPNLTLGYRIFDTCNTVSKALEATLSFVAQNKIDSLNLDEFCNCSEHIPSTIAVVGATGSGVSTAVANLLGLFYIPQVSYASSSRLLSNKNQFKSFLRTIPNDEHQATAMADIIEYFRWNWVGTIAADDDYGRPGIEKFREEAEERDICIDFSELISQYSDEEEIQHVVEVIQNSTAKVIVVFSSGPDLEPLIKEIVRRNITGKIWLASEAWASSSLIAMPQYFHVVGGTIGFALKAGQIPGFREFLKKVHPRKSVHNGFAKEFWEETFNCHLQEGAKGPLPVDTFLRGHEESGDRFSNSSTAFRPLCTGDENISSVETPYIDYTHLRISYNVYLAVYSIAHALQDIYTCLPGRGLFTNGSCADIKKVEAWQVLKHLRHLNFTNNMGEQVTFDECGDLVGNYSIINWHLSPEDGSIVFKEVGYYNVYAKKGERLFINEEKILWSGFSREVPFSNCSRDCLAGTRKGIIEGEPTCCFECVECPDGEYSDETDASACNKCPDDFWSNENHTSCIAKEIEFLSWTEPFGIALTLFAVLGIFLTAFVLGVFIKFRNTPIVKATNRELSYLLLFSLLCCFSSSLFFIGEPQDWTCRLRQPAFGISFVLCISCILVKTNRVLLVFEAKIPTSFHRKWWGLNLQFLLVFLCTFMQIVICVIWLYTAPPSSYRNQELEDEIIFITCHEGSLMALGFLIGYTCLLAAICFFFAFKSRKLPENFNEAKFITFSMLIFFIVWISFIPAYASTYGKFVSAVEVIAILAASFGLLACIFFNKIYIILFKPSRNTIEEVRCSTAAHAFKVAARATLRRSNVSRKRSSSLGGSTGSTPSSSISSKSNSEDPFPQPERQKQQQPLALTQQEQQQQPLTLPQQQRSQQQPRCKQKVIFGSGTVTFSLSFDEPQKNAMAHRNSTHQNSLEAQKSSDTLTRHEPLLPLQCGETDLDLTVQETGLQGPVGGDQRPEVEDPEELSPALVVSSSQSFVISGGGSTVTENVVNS
The experiment in a line: Calcium Receptor Inhibitor Assay.
Settings: not given
The format is cell-based. How it is done:
This example illustrates the use of the Calcium Receptor Inhibitor Assay. […] Res. 10 Suppl. […] Intracellular Ca^2+ was measured using fluo-3, a fluorescent calcium indicator.
The procedure was as follows:
1. Cells were maintained in T-150 flasks in selection media (DMEM supplemented with 10% fetal bovine serum and 200 μg/mL hygromycin B), under 5% CO2:95% air at 37° C. and were grown up to 90% confluency.
2. The medium was decanted and the cell monolayer was washed twice with phosphate-buffered saline (PBS) kept at 37° C. After the second wash, 6 mL of 0.02% EDTA in PBS was added and incubated for 4 minutes at 37° C. Following the incubation, cells were dispersed by gentle agitation.
3. Cells from 2 or 3 flasks were pooled and pelleted (100×g). The cellular pellet was resuspended in […] of SPF-PCB+ and pelleted again by centrifugation. This washing was done twice.
SPF-PCB was made up and stored at 4° C. On the day of use, SPF-PCB was supplemented with 1 mg/mL of D-glucose and 1 mM CaCl2 and then split into two fractions. To one fraction, bovine serum albumin (BSA; fraction V, ICN) was added at 5 mg/mL (SPF-PCB+). This buffer was used for washing, loading and maintaining the cells. The BSA-free fraction was used for diluting the cells in the cuvette for measurements of fluorescence.
5. Following the incubation period, the cells were pelleted by centrifugation. The resulting pellet was washed with SPF-PCB+. After this washing, cells were resuspended in SPF-PCB+ at a density of 1–2×10^6 cells/mL.
6. For recording fluorescent signals, 300 μL of cell suspension were diluted in 1.2 mL of SPF buffer containing 1 mM CaCl2 and 1 mg/mL of D-glucose. Measurements of fluorescence were performed at 37° C. with constant stirring using a spectrofluorimeter. […] To calibrate fluorescence signals, digitonin (5 mg/mL in ethanol) was added to obtain Fmax, and the apparent Fmin was determined by adding Tris-EGTA (2.5 M Tris-Base, 0.3 M EGTA).
7. To determine the potential calcilytic activity of test compounds, cells were incubated with test compound (or vehicle as a control) for 90 seconds before increasing the concentration of extracellular Ca^2+ from 1 to 2 mM. Calcilytic compounds were detected by their ability to block, in a concentration-dependent manner, increases in the concentration of intracellular Ca^2+ elicited by extracellular Ca^2+.
With `COc1ccc(CC(C)(C)NCc2ccccc2)cc1` [Compound 34, N-(Benzyl)-1,1-dimethyl-2-(4-methoxyphenyl)ethylamine], the half-maximal inhibitory concentration (IC50) is greater than 50 µM.
Same read-out and setting: for `COc1ccc(CC(C)(C)NCC(O)CCCCCCCCO)cc1` (stereo not shown) [Compound 123, N-(2,10-Dihydroxydecyl)-1,1-dimethyl-2-(4-methoxyphenyl)ethylamine Hydrochloride] the value was less than 10 µM; for `COc1ccc(CC(C)(C)NCCCCc2ccccc2)cc1` [Compound 24, N-(4-phenylbutyl)-1,1-dimethyl-2-(4-methoxyphenyl)ethylamine], greater than 50 µM; for `CCCCCCOCC(O)CNC(C)(C)Cc1ccc(OC)cc1` (stereo not shown) [Compound 66, N-(2-Hydroxy-3-hexanoxypropyl)-1,1-dimethyl-2-(4-methoxyphenyl)ethylamine], less than 10 µM.
Still for that read-out and setting: for `C=CCCCCCCC(O)CNC(C)(C)Cc1ccc(OC)cc1` (stereo not shown) [Compound 71, N-(2-Hydroxydec-9-enyl)-1,1-dimethyl-2-(4-methoxyphenyl)ethylamine] the value was less than 10 µM.
In the case of `COc1ccc(CC(C)(C)NCCc2ccccc2)cc1` [Compound 84, N-(2-Phenylethyl)-1,1-dimethyl-2-(4-methoxyphenyl)ethylamine], the 50% inhibitory concentration (IC50) is greater than 50 µM.
With `COc1ccc(CC(C)(C)NCC(O)Cc2ccccc2)cc1` (stereo not shown) [Compound 37, N-(2-Hydroxy-3-phenylpropyl)-1,1-dimethyl-2-(4-methoxyphenyl)ethylamine Hydrochloride], the IC50 is less than 10 µM.
On to `CCCCC(CC)COCC(O)CNC(C)(C)Cc1ccc(OC)cc1` (stereo not shown) [Compound 28, N-[2-Hydroxy-3-(2-ethyl)hexanoxypropyl]-1,1-dimethyl-2-(4-methoxyphenyl)ethylamine], for which the half-inhibitory concentration (IC50) was less than 1 µM.
Still for that read-out and setting: for `CCCCOCC(O)CNC(C)(C)Cc1ccc(OC)cc1` (stereo not shown) [Compound 26, N-(2-Hydroxy-3-butoxypropyl)-1,1-dimethyl-2-(4-methoxyphenyl)ethylamine] the value was less than 10 µM.
The same measure, in the same setting: for `COc1ccc(CC(C)(C)NCC(O)Cc2ccc3c(c2)OCO3)cc1` (stereo not shown) [Compound 124, N-[2-hydroxy-3-(3,4-methylene-dioxyphenyl)propyl]-1,1-dimethyl-2-(4-methoxyphenyl)ethylamine Hydrochloride] the value was less than 10 µM.

The same experiment, now with this note: HEK 293 4.0–7 cells stably expressing the human calcium receptor; fluo-3; read-out: IC50 for blocking increases of intracellular Ca2+ elicited by extracellular Ca2+.
Turning to `COc1ccc(CC(C)(C)NCC(O)COc2cccc([N+](=O)[O-])c2)cc1` (stereo not shown) [Compound 143, N-[2-hydroxy-3-(3-nitrophenoxy)propyl]-1,1-dimethyl-2-(4-methoxyphenyl)ethylamine Hydrochloride], the half-maximal inhibitory concentration (IC50) is less than 1 µM.
As for `COc1ccc(CC(C)(C)NCC(O)COc2cccc(F)c2)cc1` (stereo not shown) [Compound 39, N-[2-Hydroxy-3-(3-fluorophenoxy)propyl]-1,1-dimethyl-2-(4-methoxyphenyl)ethylamine Hydrochloride], the IC50 is less than 10 µM.
Turning to `CC(C)(Cc1ccccc1)NCC(O)COc1cccc2ccccc12` (stereo not shown) [Compound 55, N-[2-hydroxy-3-(1-naphthoxy)propyl]-1,1-dimethyl-2-phenylethylamine], the IC50 was greater than 50 µM.
On the same count and under the same terms, for `COc1ccc(CC(C)(C)NCC(O)COc2ccc(NC(C)=O)cc2)cc1` (stereo not shown) [Compound 58, N-[2-hydroxy-3-(4-acetamidophenoxy)propyl]-1,1-dimethyl-2(4-methoxyphenyl)ethylamine] the value was greater than 50 µM; for `COc1ccc(CC(C)(C)NCC(O)COc2cccc(C(C)C)c2)cc1` (stereo not shown) [Compound 146, N-[2-hydroxy-3-(3-iso-propylphenoxy)propyl]-1,1-dimethyl-2-(4-methoxyphenyl)ethylamine Hydrochloride], less than 1 µM.
The same measure, in the same setting: for `CCCN(CCC)S(=O)(=O)c1ccc(OC[C@H](O)CNC(C)(C)Cc2ccc(OC)cc2)c(Cl)c1Cl` [Compound 165, N-[2(R)-Hydroxy-3-[(2,3-dichloro-4-dipropylsulfamoyl)phenoxyl-1-propyl]-N-[1,1-dimethyl-2-(4-methoxyphenyl)ethyl]amine hydrochloride salt] the value was less than 1 µM.
The same measure, in the same setting: for `CCC(CC)(Cc1ccc(OC)cc1)NCC(O)COc1ccccc1` (stereo not shown) [Compound 114, N-(2-Hydroxy-3-phenoxypropyl)-1,1-diethyl-2-(4-methoxyphenyl)ethylamine Hydrochloride] the value was less than 10 µM.
Take `COc1ccc(CC(C)(C)NCC(O)COc2ccc(C(C)(C)C)cc2)cc1` (stereo not shown) [Compound 6, N-[2-Hydroxy-3-(4-t-butylphenoxy)propyl]-1,1-dimethyl-2-(4-methoxyphenyl)ethylamine Hydrochloride]: the concentration for half-maximal inhibition (IC50) was less than 1 µM.
On the same count and under the same terms, for `COc1ccc(CC(C)(C)NCC(O)COc2c(Cl)cccc2Cl)cc1` (stereo not shown) [Compound 155, N-[2-hydroxy-3-(2,6-dichlorophenoxy)propyl]-1,1-dimethyl-2-(4-methoxyphenyl)ethylamine Hydrochloride] the value was less than 10 µM; for `CC(C)(Cc1cccc2ccccc12)NCC(O)COc1ccccc1` (stereo not shown) [Compound 92, N-(2-hydroxy-3-phenoxypropyl)-1,1-dimethyl-2-(1-naphthyl)ethylamine], greater than 50 µM; for `COc1ccc(CC(C)(C)NCC(O)COc2cc(Cl)cc(Cl)c2)cc1` (stereo not shown) [Compound 137, N-[2-hydroxy-3-(3,5-dichlorophenoxy)propyl]-1,1-dimethyl-2-(4-methoxyphenyl)ethylamine Hydrochloride], less than 1 µM.
Same read-out and setting: for `COc1ccc(CC(C)(C)NCC(O)COc2cc(Cl)cc(OC)c2)cc1` (stereo not shown) [Compound 157, N-[2-hydroxy-3-(3-chloro-5-methoxyphenoxy)propyl]-1,1-dimethyl-2-(4-methoxyphenyl)ethylamine Hydrochloride] the value was less than 1 µM.
The same measure, in the same setting: for `CCCCCCCCCCCCOCC(O)CNC(C)(C)Cc1ccc(OC)cc1` (stereo not shown) [Compound 72, N-(3-Dodecanoxy-2-hydroxypropyl)-1,1-dimethyl-2-(4-methoxyphenyl)ethylamine] the value was less than 1 µM.
As to `COc1ccc(CC(C)(C)NCC(O)COc2cccc(-c3ccccc3)c2)cc1` (stereo not shown) [Compound 61, N-[2-hydroxy-3-(3-phenylphenoxy)propyl]-1,1-dimethyl-2-(4-methoxyphenyl)ethylamine], the IC50 is less than 10 µM.
In the case of `COc1ccc(CC(C)(C)NCCOc2ccccc2)cc1` [Compound 53, N-(2-phenoxyethyl)-1,1-dimethyl-2-(4-methoxyphenyl)ethylamine], the IC50 was greater than 50 µM.
Still for that read-out and setting: for `COc1ccc(CC(C)(C)NC[C@@H](O)COc2ccccc2C#N)cc1` [Compound 122, (R)—N-[2-Hydroxy-3-(2-cyanophenoxy)propyl]-1,1-dimethyl-2-(4-methoxyphenyl)ethylamine Hydrochloride] the value was less than 1 µM; for `COc1ccc(CC(C)(C)NCC(O)COc2cccc(C#N)c2)cc1` (stereo not shown) [Compound 160, N-[2-hydroxy-3-(3-cyanophenoxy)propyl]-1,1-dimethyl-2-(4-methoxyphenyl)ethylamine Hydrochloride], less than 1 µM; for `COc1ccc(CC(C)(C)NCC(O)COc2cccc3[nH]c(O)nc23)cc1` (stereo not shown) [Compound 1], less than 50 µM.

(Values after patent publication US7202261B2, “Calcilytic compounds” (NPS Pharmaceuticals, Inc., priority 1996, dated 2007).)
